{"source": "paper PMC6211297", "about": "(Biochemistry, 2017)", "target": "PglF (Campylobacter jejuni, UniProt Q0P9D4)", "sequence (Q0P9D4 244-590)": "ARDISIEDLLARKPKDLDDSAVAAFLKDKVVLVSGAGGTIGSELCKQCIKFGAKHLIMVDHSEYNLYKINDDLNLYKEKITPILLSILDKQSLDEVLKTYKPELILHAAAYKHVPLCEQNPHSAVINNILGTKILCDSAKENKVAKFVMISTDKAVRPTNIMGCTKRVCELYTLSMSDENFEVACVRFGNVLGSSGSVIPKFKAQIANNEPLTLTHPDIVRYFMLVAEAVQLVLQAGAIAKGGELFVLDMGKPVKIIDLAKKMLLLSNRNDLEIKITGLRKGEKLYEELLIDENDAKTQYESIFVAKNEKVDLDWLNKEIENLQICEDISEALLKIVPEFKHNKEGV", "experiment": "X-ray crystal structure, […] Å", "type": "binding", "settings": "ternary complex with NAD(H); 10 mM UDP, pH 6.0; active site"}
{"smiles": "O=c1ccn([C@@H]2O[C@H](COP(=O)(O)OP(=O)(O)O)[C@@H](O)[C@H]2O)c(=O)[nH]1", "note": "[UDP]", "values": [{"measurement": "X-ray crystal structure, 2.0 Å", "value": "The first structure determined in this investigation was that of the PglF/NAD(H)/UDP ternary complex"}]}
